Where “and” joins values, the source holds several entries; their conditions need not be identical. Identical values can stand only once.
Key:
[1] = system: GH release stimulated by hGH-RH(1-29)NH2; assay: In vivo inhibition of hGH-RH(1-29)NH2-stimulated serum GH in anesthetized rats; set-up: species or system Sprague-Dawley rats
Experimental: In Vivo Tests. Adult male Sprague-Dawley rats are anesthetized with pentobarbital (6 mg/100 g b.w., i.p.). Blood samples are taken from the jugular vein 30 min after the injection of pentobarbital. One group of 7 animals receives hGH-RH(1-29)NH2 as control. […] Blood samples are taken from the jugular vein 5 and 15 min after the injection of antagonists. GH levels are measured by RIA. Potencies of the antagonists are calculated by the factorial analysis of Bliss and Marks with 95% confidence limits and are based on the doses of 100 and 400 μg/kg b.w. of the Standard antagonist and 20 and 80 μg/kg b.w. of the antagonists tested. Statistical significance was assessed by Duncan's new multiple range test.

[2] = system: SW-1990 human pancreatic cancers; assay: SW 1990 human pancreatic cancers in nude mice; format: in vivo
Experimental: Small piees of an SW-1990 rumor growing in a nude mouse were transplated s.c. into the right flanks of 60 nu/nu male nude mice. Ten days after transplantation, 40 mice with well growing tumors were groupled into 4 groups with equal average tumor volume (16 mm^3) in each group. Treatment started 13 days after transplantation and was continuted for 44 days. The tumors were measured and volume was calculated weekly. Tumor volume changes are shown in Table V. On day 45 of treatment the mice were sacraficed under Metofane anesthesia by exsanguination from abdominal aorta. Blood was collected, tumor and organ weights were determined.

GH release = conditions: cited from earlier work
[3] = 80 μg/kg i.v., 15 min prior to GH-RH(1-29)NH2 3 μg/kg

CC[C@H](C)[C@H](NC(=O)[C@H](C)NC(=O)[C@H](CC(=O)O)NC(=O)[C@H](C)NC(=O)[C@@H](N)Cc1ccc(O)cc1)C(=O)N[C@@H](Cc1ccccc1)C(=O)N[C@H](C(=O)N[C@@H](CC(N)=O)C(=O)N[C@@H](CO)C(=O)N[C@@H](Cc1ccc(O)cc1)C(=O)N[C@@H](CCCNC(=N)N)C(=O)N[C@@H](CCCCN)C(=O)N[C@H](C(=O)N[C@@H](CC(C)C)C(=O)NCC(=O)N[C@@H](CCC(N)=O)C(=O)N[C@@H](CC(C)C)C(=O)N[C@@H](CO)C(=O)N[C@@H](C)C(=O)N[C@@H](CCCNC(=N)N)C(=O)N[C@@H](CCCCN)C(=O)N[C@@H](CC(C)C)C(=O)N[C@@H](CC(C)C)C(=O)N[C@@H](CCC(N)=O)C(=O)N[C@@H](CC(=O)O)C(=O)N[C@H](C(=O)N[C@@H](CCSC)C(=O)N[C@@H](CO)C(=O)N[C@@H](CCCNC(=N)N)C(N)=O)[C@@H](C)CC)C(C)C)[C@@H](C)O [GH-RH (1-29) NH2, Tyr-Ala-Asp-Ala-Ile^5 -Phe-Thr-Asn-Ser-Tyr^10 -Arg-Lys-Val-Leu-Gly^15 -Gln-Leu-Ser-Ala-Arg^20 -Lys-Leu-Leu-Gln-Asp^25 -Ile-Met-Ser-Arg^29 -NH2]
Serum GH Levels ([1]; GH-RH(1-29)NH2 alone 3.0 μg/kg i.v. (stimulated control)): 695.15 ± 95.40 ng/mL and 703.34 ± 90.01 ng/mL and 724.68 ± 93.01 ng/mL and 883.36 ± 148.34 ng/mL and 703.34 ± 93.01 ng/mL

Ibu^0 --D--Arg^2 --Phe(pCl)^6 --Abu^16 --Nle^27 ] hGHRH (1-28) Agm [Peptide A]
effect on growth of SW-1990 cancers (volume and weight data) ([2]; Peptide #8 at 10 μg/day): no significant effect on the tumors | Final Tumor Volume mm^3 ([2]; dose 10, 44 days treatment): 1183 ± 342 mm^3 | Tumor weights ([2]; dose 10, 44 days treatment): 1467 ± 595 mg | Final Tumor Volume mm^3 ([2]; dose 40, 44 days treatment): 902 ± 156 mm^3 | Tumor weights ([2]; dose 40, 44 days treatment): 1297 ± 258 mg | Inhibition % [1, 3]: 43% | Serum GH Levels [1, 3]: 585.33 ± 89.34 ng/mL | Serum GH Levels ([1]; 80 μg/kg i.v., 30 min prior to GH-RH(1-29)NH2 3 μg/kg): 788.39 ± 96.93 ng/mL

[AcTyr^1 ]hGH-RH(1-29)NH2
in vivo potency over that of GH-RH (GH release): ten fold or more

From patent US5942489A, “HGH-RH(1-29)NH2 analogues having antagonistic activity” (The Administrators of the Tulane Educational Fund, priority 1996, dated 1999)
